Activity calls are given as the source filed them. The rule behind the calls is not given here. Peptide text beside a SMILES is read from it.
How the values were obtained:
OVCAR-3 = assay: Cytotoxicity against human OVCAR-3 cells at 50 ug/mL; format: functional, cell-based
COLO 205 = assay: Cytotoxicity against human COLO205 cells at 50 ug/mL; format: functional, cell-based

C[C@@H]1NC(=O)[C@H]([C@@H](C)O)NC(=O)[C@H](Cc2ccc(O)cc2)NC(=O)[C@@H]2CCCN2C(=O)[C@H](Cc2ccc(O)cc2)NC(=O)[C@H](CCCNC(=N)N)NC(=O)[C@@H]2CCCN2C(=O)[C@H](CC(N)=O)NC1=O (cyclo(ANPRYPYT)) was tested, and the Activity (OVCAR-3) was “inactive” and the Activity (COLO 205) was “inactive”.

Reference: ChEMBL document CHEMBL1146508, “Cyclonellin, a new cyclic octapeptide from the marine sponge Axinella carteri” (J Nat Prod, 2004)
